Tests used:
[1] = molecular target: PTGER2 (EP2) (Homo sapiens (Human), UniProt P43116); assay: hEP2 b-arrestin assay (PathHunter HEK 293 PTGER2 b-arrestin cells); assay type: cell-based; conditions: antagonistic activity, beta-arrestin assay; read-out: hEP2 b-arr IC50
Experimental: Plate is pre-incubated 15 minutes at 37° C. Then five microliters of PGE2 (final conc. 5 μM) are transferred into the assay plate. Plate is incubated 120 minutes at 37° C.
(each concentration is measured in duplicate)

[2] = molecular target: EP4 (Homo sapiens (Human), UniProt P35408); assay: hEP4 cAMP assay (BT549 breast cancer cells, HTRF cAMP); assay type: cell-based; conditions: antagonistic activity, PGE2 6 nM
EP4, sequence (P35408 whole entry): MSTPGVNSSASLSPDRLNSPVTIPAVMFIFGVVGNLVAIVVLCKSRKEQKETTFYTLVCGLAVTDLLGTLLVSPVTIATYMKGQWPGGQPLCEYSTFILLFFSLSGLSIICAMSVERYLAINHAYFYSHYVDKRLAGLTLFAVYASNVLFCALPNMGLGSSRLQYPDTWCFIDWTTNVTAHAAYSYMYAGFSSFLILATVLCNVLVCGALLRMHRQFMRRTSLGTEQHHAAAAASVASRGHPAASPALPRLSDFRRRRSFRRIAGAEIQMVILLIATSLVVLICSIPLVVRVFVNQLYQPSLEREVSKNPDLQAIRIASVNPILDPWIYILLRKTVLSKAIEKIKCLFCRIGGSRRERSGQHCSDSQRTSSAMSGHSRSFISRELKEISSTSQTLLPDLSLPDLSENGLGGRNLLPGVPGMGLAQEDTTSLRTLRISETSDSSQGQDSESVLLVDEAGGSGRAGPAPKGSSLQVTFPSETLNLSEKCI
Outline: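 BT549 breast cancer cells (endogenous EP4) in HBSS/20 mM HEPES/0.2% BSA/2 mM IBMX preincubated 45 min at RT with compound, then stimulated 30 min at RT with 6 nM PGE2 (final). cAMP read by competitive HTRF immunoassay, signal inversely proportional to cAMP.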

[3] = molecular target: PTGER4 (EP4) (Homo sapiens (Human), UniProt P35408); assay: cell-based
PTGER4 (EP4), sequence (P35408 whole entry): as above

[4] = molecular target: EP2 (Homo sapiens (Human), UniProt P43116); assay: hEP2 cAMP assay (SF295 glioblastoma cells, HTRF cAMP); assay type: cell-based; conditions: antagonistic activity
EP2, sequence (P43116 whole entry): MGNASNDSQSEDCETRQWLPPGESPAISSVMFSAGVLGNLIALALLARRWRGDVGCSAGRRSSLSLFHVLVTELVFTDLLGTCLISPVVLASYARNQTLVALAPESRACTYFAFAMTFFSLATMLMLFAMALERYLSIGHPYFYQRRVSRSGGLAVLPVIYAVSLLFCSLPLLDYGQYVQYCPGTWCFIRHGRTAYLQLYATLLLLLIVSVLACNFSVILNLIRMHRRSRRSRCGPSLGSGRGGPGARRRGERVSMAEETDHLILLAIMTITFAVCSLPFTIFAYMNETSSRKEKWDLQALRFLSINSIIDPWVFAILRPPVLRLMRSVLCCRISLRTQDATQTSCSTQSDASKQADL
Outline: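 PGE2-driven cAMP accumulation was measured by HTRF in SF295 cells, which express endogenous EP2 only. Cells in assay buffer with 2 mM IBMX were pre-incubated 45 min at RT, then incubated 30 min at RT. Detection used competition between cellular cAMP and d2-cAMP for a cryptate anti-cAMP antibody.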

PTGER2 (EP2), sequence (P43116 whole entry): as above

Row | SMILES | IC50 [1] | IC50 [2] | IC50 [3] | IC50 [4] | IC50 ([2]; BT549 cells)
1 | CCOc1cc(-c2cc(NCCc3ccc4sccc4c3)ncn2)ccc1C(=O)O [Ex 155, 4-[6-(2-Benzo[b]thiophen-5-yl-ethylamino)-pyrimidin-4-yl]-2-ethoxy-benzoic acid] | 232 nM | 151 nM | 301 nM | 161 nM | 
2 | C=C(C(=O)O)c1ccc(-c2cc(NCCc3cc4c(cc3OC)OCCO4)ncn2)cc1 [Ex 337] | 664 nM | 1430 nM | 1320 nM | 1310 nM | 
3 | CCOc1cc2c(cc1CCNc1cc(-c3ccc(C(=O)O)c(OCC)c3)ncn1)OCCO2 [Ex 261, 2-Ethoxy-4-{6-[2-(7-ethoxy-2,3-dihydro-benzo[1,4]dioxin-6-yl)-ethylamino]-pyrimidin-4-yl}-benzoic acid] | 53 nM | 406 nM | 396 nM | 20 nM | 
4 | CSc1cc(-c2cc(NCCc3ccc4ccoc4c3)ncn2)ccc1C(=O)O [Ex 250, 4-[6-(2-Benzofuran-6-yl-ethylamino)-pyrimidin-4-yl]-2-methylsulfanyl-benzoic acid] | 112 nM | 287 nM | 609 nM | 77 nM | 
5 | CCCc1cc(-c2cc(NCCc3ccc4sccc4c3F)ncn2)ccc1CC(=O)O [Example 386, (4-{6-[2-(4-Fluoro-benzo[b]thiophen-5-yl)-ethylamino]-pyrimidin-4-yl}-2-propyl-phenyl)-acetic acid] | 64 nM | 54 nM | 28 nM | 453 nM | 
6 | CCOc1cc(-c2cc(NCCc3cc4cccnc4cc3F)ncn2)sc1-c1nnn[nH]1 [Example 349, {6-[4-Ethoxy-5-(1H-tetrazol-5-yl)-thiophen-2-yl]-pyrimidin-4-yl}-[2-(7-fluoro-quinolin-6-yl)-ethyl]-amine] | 109 nM | 14 nM | 4 nM | 103 nM | 
7 | CCOc1cc(-c2cc(NCCc3ccc4sccc4c3)ncn2)ccc1CC(=O)O [Ex 189] | 158 nM | 208 nM | 108 nM | 530 nM | 
8 | CCOc1cc(-c2cc(NCCc3ccc4scc(C)c4c3)ncn2)ccc1OCC(=O)O [Example 466, (2-Ethoxy-4-{6-[2-(3-methyl-benzo[b]thiophen-5-yl)-ethylamino]-pyrimidin-4-yl}-phenoxy)-acetic acid] | 206 nM |  | 171 nM | 190 nM | 1210 nM
9 | CCOc1cc(-c2cc(NCCc3c(OC)cc4occc4c3C)ncn2)sc1C(=O)O [Ex 8, 3-Ethoxy-5-{6-[2-(6-methoxy-4-methyl-benzofuran-5-yl)-ethylamino]-pyrimidin-4-yl}-thiophene-2-carboxylic acid] | 5 nM | 6 nM | 22 nM | 1 nM | 
10 | CCOc1cc(-c2cc(NCCc3cc4ccoc4cc3OC)ncn2)sc1C(=O)O [Ex 12, 3-Ethoxy-5-{6-[2-(6-methoxy-benzofuran-5-yl)-ethylamino]-pyrimidin-4-yl}-thiophene-2-carboxylic acid] | 7 nM | 7 nM | 20 nM | 3 nM | 
11 | Cc1c(CCNc2cc(-c3ccc(C(=O)O)c(OC4CCC4)c3)ncn2)ccc2ccccc12 [Ex 168] | 151 nM | 168 nM | 128 nM | 214 nM | 
12 | CCOc1cc(-c2cc(NCCc3cc4c(cc3SC)OCCO4)ncn2)sc1C(=O)O [Ex 78, 3-Ethoxy-5-{6-[2-(7-methylsulfanyl-2,3-dihydro-benzo[1,4]dioxin-6-yl)-ethylamino]-pyrimidin-4-yl}-thiophene-2-carboxylic acid] | 141 nM | 44 nM | 21 nM | 219 nM | 
13 | COc1cc2c(cc1CCNc1cc(-c3ccc4c(C(=O)O)c[nH]c4c3)ncn1)OCCO2 [Ex 323] | 438 nM | 835 nM | 1900 nM | 114 nM | 
14 | CCOc1cc(-c2cc(NCCc3cc(F)c4sccc4c3)ncn2)ccc1-c1nnn[nH]1 [Example 452, {6-[3-Ethoxy-4-(1H-tetrazol-5-yl)-phenyl]-pyrimidin-4-yl}-[2-(7-fluoro-benzo[b]thiophen-5-yl)-ethyl]-amine] | 103 nM |  | 21 nM | 371 nM | 18 nM
15 | COc1cc2c(cc1CCNc1cc(-c3ccc4cc(C(=O)O)oc4c3)ncn1)OCCO2 [Ex 81, 6-{6-[2-(7-Methoxy-2,3-dihydro-benzo[1,4]dioxin-6-yl)-ethylamino]-pyrimidin-4-yl}-benzofuran-2-carboxylic acid] | 122 nM | 164 nM | 1840 nM | 123 nM | 
16 | CCOc1cc(-c2cc(NCCc3c(F)c(F)c4cc(C)oc4c3OC)ncn2)sc1C(=O)O [Ex 55, 5-{6-[2-(4,5-Difluoro-7-methoxy-2-methyl-benzofuran-6-yl)-ethylamino]-pyrimidin-4-yl}-3-ethoxy-thiophene-2-carboxylic acid] | 844 nM | 16 nM | 25 nM | 335 nM | 
17 | CCOc1cc(-c2cc(NCCc3cc4ccccc4cc3OC)ncn2)sc1C(=O)O [Ex 9, 3-Ethoxy-5-{6-[2-(3-methoxy-naphthalen-2-yl)-ethylamino]-pyrimidin-4-yl}-thiophene-2-carboxylic acid] | 59 nM | 6 nM | 6 nM | 67 nM | 
18 | CCOc1cc(-c2cc(NCCc3c(OC)cc4occc4c3C)ncn2)ccc1OCC(=O)O [Ex 102, (2-Ethoxy-4-{6-[2-(6-methoxy-4-methyl-benzofuran-5-yl)-ethylamino]-pyrimidin-4-yl}-phenoxy)-acetic acid] | 9 nM | 70 nM | 141 nM | 6 nM | 
19 | CCOc1cc(-c2cc(NCCc3cc4c(cc3OC)OCCO4)ncn2)ccc1OC(C)C(=O)O (stereo not drawn) [Ex 201] | 83 nM | 229 nM | 111 nM | 133 nM | 
20 | CCOc1cc(-c2cc(NCCc3cc4ccccc4cc3C)ncn2)sc1C(=O)O [Ex 40, 3-Ethoxy-5-{6-[2-(3-methyl-naphthalen-2-yl)-ethylamino]-pyrimidin-4-yl}-thiophene-2-carboxylic acid] | 126 nM | 20 nM | 25 nM | 228 nM | 
21 | CCCCOc1cc(-c2cc(NCCc3ccc4ccccc4c3C)ncn2)cc(F)c1C(=O)O [Ex 150] | 230 nM | 144 nM | 222 nM | 219 nM | 
22 | COc1cc2ccsc2cc1CCNc1cc(-c2ccc(C(=O)O)c(SC)c2)ncn1 [Ex 152, 4-{6-[2-(5-Methoxy-benzo[b]thiophen-6-yl)-ethylamino]-pyrimidin-4-yl}-2-methylsulfanyl-benzoic acid] | 119 nM | 145 nM | 352 nM | 111 nM | 
23 | CCOc1cc(-c2cc(NCCc3ccc4scc(C)c4c3)ncn2)ccc1C(=O)O [Example 465, 2-Ethoxy-4-{6-[2-(3-methyl-benzo[b]thiophen-5-yl)-ethylamino]-pyrimidin-4-yl}-benzoic acid] | 313 nM |  | 827 nM | 245 nM | 1400 nM
24 | CCOc1cc(-c2cc(NCCc3ccc4c(c3)OCCO4)ncn2)sc1C(=O)O [Ex 41, 5-{6-[2-(2,3-Dihydro-benzo[1,4]dioxin-6-yl)-ethylamino]-pyrimidin-4-yl}-3-ethoxy-thiophene-2-carboxylic acid] | 405 nM | 21 nM | 30 nM | 164 nM | 
